# How the values were obtained:
# [1] = Clinical signs of toxicity and histology of normal organs in treated tumor-bearing mice; assay type: in vivo, SCID mice; settings: for Symptoms (clinical signs of toxicity): endotoxin-free tTF alone
# Description: Treatment was initiated when subcutaneous tumors reached a size of 150 to 300 μl. Reagents were administered into the lateral tail vein.
# (§1) Mice were closely observed after treatment for clinical signs of toxicity and clinical status was documented at defined time points (5 minutes, 10 minutes, 15 minutes, 30 minutes. 1 hour, 2 hours, 24 hours, 48 hours, 72 hours). Blood samples were taken from the tail vein at 1 hour, 2 hours and 24 hours to measure TNFα blood levels. Three days after treatment, the mice were anesthetized, blood samples were taken from the vena cava for coagulation tests, and an autopsy was performed to document any changes in gross pathology. Tumors, lymph node metastases and the major normal organs (heart, lung, brain, liver, kidney, colon, spleen, pancreas) were harvested and prepared for histological analysis.
# Tissue samples harvested at the time of autopsy were fixed in 3% NBF (normal buffered formalin) and embedded in paraffin wax. Tissue blocs were cut, dewaxed and stained with hematoxilin and eosin (H&E). Tissue sections were analyzed on a light microscope by two independent investigators and histological findings were documented. Tumor sections with necrotic areas were scanned with a GS-700 imaging densitometer (Biorad, Hercules, Calif.) and areas of necrosis were calculated as % of total section area. Statistical Analysis was performed using SPSS software (SPSS Science Software, Erkrath, Germany) applying the Mann-Whitney-U-test for ungrouped data.
# TNFα = TNFα serum levels in treated animals (Quantikine-M kit); assay type: in vivo, mice; settings: tTF containing no endotoxin (n=6); any of the time points
# Description: as §1
# TNFα levels in serum were deter-mined using the Quantikine-M kit (R&D Systems, Minneapolis, Minn.) according to the manufacturer's instructions.
# immobilized tTF = biological target: T1, immobilized tTF (Homo sapiens, UniProt P13726); assay: Real time binding of tTF to immobilized tTF (surface plasmon resonance); settings: tTF alone or preincubated with endotoxin or factor VIIa
# T1 construct: Recombinant soluble Tissue Factor protein (amino acids 1-219) was extracted from the periplasmic space of transformed E. coli; made in house; host or cells: E. coli (periplasmic secretion, vector pswc7)
# [2] = tested on: 2F2B mouse endothelial cells; assay: Binding of tTF to tissue factor-expressing endothelial cells (FACS, cell bound coagulation assay); assay type: cell-based; settings: FACS analysis or cell bound coagulation assay
# Description: Cells were washed and coagulation factor mix (as described above) was added. S2765 substrate was added and Factor Xa generation was measured as described above.
# 2F2B cells were stimulated with LPS (20 μg/ml) or TNFα (500 U/ml) for 4 h at 37° C. […] Fluorescent cells were detected on a flow cytometer (Becton Dickinson, San Jose, Calif.).
# L540 tumor blood vessels = assay: Thrombosis of L540 tumor vessels by anti-VCAM-1·tTF coaguligand; assay type: in vivo, mice; settings: equivalent quantities
# Text: Before coaguligand injection, tumors were viable, having a uniform morphology lacking regions of necrosis. […] Within four hours of coaguligand injection, 40-70% of blood vessels were thrombosed. despite the initial staining of only 20-30% of tumor blood vessels. The thrombosed vessels contained occlusive platelet aggregates, packed erythrocytes and fibrin. In several regions, the blood vessels had ruptured, spilling erythrocytes into the tumor interstitium.
# C1300 (Muγ) tumors = assay: Coaguligand (B21-2/10H10 + tTF) treatment of C1300 (Muγ) tumors; assay type: in vivo, BALB/c nu/nu mice; settings: paraffin sections, 30 minutes to 24 hours after administration
# Text: To improve the C1300 (Muγ) tumor model, the C1300 (Muγ) cell line was subcloned into a cell line that can grow without being mixed with its parental cell, C1300, but still express the I-A^d MHC Class II antigen on the endothelial cells of the tumor. […] Vessels in other normal tissues were unstained.
# Vessels contained platelet aggregates, packed red cells and fibrin. At this time, tumor-cells were viable, being indistinguishable morphologically from tumor cells in untreated mice. […]
# To establish tumors, 10^6 to 1.5×10^7 tumor cells were injected subcutaneously into the right anterior flank of the mice. […] Other mice received equivalent quantities IgG, Fab′ or bispecific antibody alone. […]
# Twenty-four hours after being injected with tTF or immunoglobulin-tTF conjugates, the mice were anesthetized with metophane and were exsanguinated by perfusion with heparinized saline. […] Blood vessels having open lumens containing erythrocytes and blood vessels containing thrombi were counted. […]
# Other mice received equivalent quantities of bispecific antibody alone. […] Perpendicular tumor diameters were measured at regular intervals and tumor volumes were calculated.
# [3] = tested on: A20 lymphoma cells (I-A^d positive), mouse or human plasma; assay: In vitro coagulation assay on A20 cells with capture bispecific antibody B21-2/10H10; assay type: cell-based; settings: for coagulation time: cells alone 190 seconds
# C1300 Muγ tumors = assay: Anti-tumor effects of tTF and immunoglobulin-tTF in C1300 Muγ tumors; assay type: in vivo, nu/nu mice; settings: tTF alone or mixed with control bispecific antibodies
# Description: The tumor test systems were: i) L540 human Hodgkin's disease tumors growing in SCID mice; ii) C1300 Muγ (interferon-secreting) neuroblastoma growing in nu/nu mice; iii) H460 human non-small cell lung carcinoma growing in nu/nu mice. To establish solid tumors, 1.5×10^7 tumor cells were injected subcutaneously into the right anterior flank of SCID or BALB/c nu/nu mice (Charles River Labs., Wilmingham, Mass.). When the tumors had grown to various diameters, mice were assigned to different experimental groups, each containing 4 to 9 mice.
# Other mice received equivalent quantities of bispecific antibody alone. The injections were performed over ˜45 seconds into one of the tail veins, followed by 200 μl of saline. The infusions were repeated six days later. Perpendicular tumor diameters were measured at regular intervals and tumor volumes were calculated.
# Mice bearing small (300 mm^3) C1300 Muγ tumors were injected intravenously with 16-20 μg tTF219. The treatment was repeated one week later. […] One week after the second treatment with tTF219, tumors were 60% of the size of tumors in mice receiving diluent alone. The greater effectiveness of the second injection probably derives from the greater thrombotic action of tTF219 on vessels in large tumors, observed above.
# Mice bearing small (300 mm^3) subcutaneous C1300 Muγtumors were treated with tTF219 or with a complex of tTF219 and a bispecific antibody, OX7 Fab′/10H10 Fab′, not directed to a component of the tumor environment. The treatment was repeated 6 days later.
# T1 sequence (P13726 33-251): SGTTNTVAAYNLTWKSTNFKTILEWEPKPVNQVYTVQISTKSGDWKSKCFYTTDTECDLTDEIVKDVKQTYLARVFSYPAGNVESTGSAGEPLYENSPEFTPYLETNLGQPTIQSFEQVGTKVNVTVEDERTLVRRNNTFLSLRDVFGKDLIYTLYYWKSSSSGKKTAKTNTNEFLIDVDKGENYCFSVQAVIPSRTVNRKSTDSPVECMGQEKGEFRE
substance,measurement,setting,value
"tTF: extracellular domain of the mature Tissue Factor protein (amino acid 1-219), recombinant; depyrogenated in Example X",Symptoms (clinical signs of toxicity),[1],no clinical signs of toxicity
same,Symptoms (clinical signs of toxicity),[1]; listed as TTF,None
same,"histology of normal organs (necrosis, thrombosis, abnormalities)","[1]; light microscopy, three days after treatment",No histological abnormalities were seen
same,TNFα in serum,TNFα,could not be detected
same,binding to immobilized tTF,immobilized tTF,did not bind to or homodimerize with immobilized tTF
same,binding to endothelial cells expressing tissue factor,[2],no binding of tTF to endothelial cells
same,control reagents causing thrombosis,L540 tumor blood vessels,None
same,thrombi or abnormalities in normal organs,C1300 (Muγ) tumors,"neither thrombi, nor histological or morphological abnormalities were visible"
same,coagulation time,"[3]; 20,000 molecules of tTF per cell",140 s
same,coagulation time,"[3]; 300,000 molecules of tTF per cell",40 s
same,concentration at which plasma coagulated in 50 seconds,"[3]; bound via B21-2/10H10 to A20 cells, separate studies per block",3 nM
same,effect on coagulation time,[3]; cells incubated with tTF alone (not bound),no effect on coagulation time
same,time to visible fibrin strands after addition of mouse plasma,"[3]; tTF bound to A20 cells by B21-2/10H10, untreated cells 164 seconds",36 s
same,tumor growth versus antibodies or saline alone,C1300 Muγ tumors,grew significantly more slowly

# Source: patent US20030124132A1 (University of Texas, published 2003)
